Among the data in patent US9233964B2, “Sulfamide piperazine derivatives as protein tyrosine kinase inhibitors and pharmaceutical use therof” (LEO PHARMA A/S, priority 2011, dated 2016) are EC50 values, retold here.

The EC50 is the concentration that produces a half-maximal response.

Common to all, as to type: biochemical
For test [1], the target named is T1, JAK1 (Homo sapiens, UniProt P23458).
T1 construct: JAK1 (aa 850-1154) and TYK2 (aa 871-1187) are expressed with an N-terminally fused GST-tag; GST (N); purchased Carna Biosciences, Inc; host or cells: baculovirus expression system
The experiment in a line: JAK kinase assay (HTRF, phosphorylation of synthetic peptide), JAK1. The note with it: catalytic domain, ATP at Km (7 μM); read-out: JAK1 kinase inhibitory activity (EC50). The gist of the method:
(§1)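 Catalytic-domain human JAK1 (GST-tagged, aa 850-1154) or His-tagged JAK2, baculovirus-expressed, phosphorylated 1 µM biotinylated TK peptide at Km ATP (JAK1 7 µM, 10 mM MgCl2, 50 nM SEB; JAK2 4 µM, 5 mM MgCl2) in pH 7.0 Hepes, 20-30 min RT. EDTA stop; overnight streptavidin-XL665/cryptate HTRF read.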
(In TR-FRET formats the signal depends on donor and acceptor labels being close together.)

Test [2] deals with T2, JAK2 (Homo sapiens, UniProt O60674).
T2 construct: All four purified enzymes contain only the catalytic domain; His (N); purchased Carna Biosciences, Inc; host or cells: baculovirus expression system
The experiment in a line: JAK kinase assay (HTRF, phosphorylation of synthetic peptide), JAK2. The conditions noted are these: catalytic domain, ATP at Km (4 μM); read-out: JAK2 kinase inhibitory activity (EC50). In a few lines:
as §1

Test [3] addresses T3, TYK2 (Homo sapiens, UniProt P29597).
T3 construct: JAK1 (aa 850-1154) and TYK2 (aa 871-1187) are expressed with an N-terminally fused GST-tag; GST (N); purchased Carna Biosciences, Inc; host or cells: baculovirus expression system
T3 sequence (P29597 871-1187): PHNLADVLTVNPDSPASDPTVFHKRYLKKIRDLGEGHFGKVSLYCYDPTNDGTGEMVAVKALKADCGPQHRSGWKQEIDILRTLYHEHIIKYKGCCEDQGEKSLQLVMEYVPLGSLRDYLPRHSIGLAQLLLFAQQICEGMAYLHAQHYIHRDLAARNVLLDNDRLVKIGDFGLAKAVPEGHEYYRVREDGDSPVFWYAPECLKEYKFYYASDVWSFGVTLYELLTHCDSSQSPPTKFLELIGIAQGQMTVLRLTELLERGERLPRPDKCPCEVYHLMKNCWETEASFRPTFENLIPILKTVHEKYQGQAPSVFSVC
The experiment in a line: JAK kinase assay (HTRF, phosphorylation of synthetic peptide), TYK2. The note with it: catalytic domain, ATP at Km (13 μM); read-out: TYK2 kinase inhibitory activity (EC50). The gist of the method:
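1 µM biotinylated TK peptide at Km ATP in pH 7.0 Hepes, 20-30 min RT. EDTA stop; overnight streptavidin-XL665/cryptate HTRF read.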

Test [4] has as its target T4, JAK3 (Homo sapiens, UniProt P52333).
T4 construct: All four purified enzymes contain only the catalytic domain; His (N); purchased Carna Biosciences, Inc; host or cells: baculovirus expression system
Nature of the test: JAK kinase assay (HTRF, phosphorylation of synthetic peptide), JAK3. The note with it: catalytic domain, ATP at Km (2 μM); read-out: JAK3 kinase inhibitory activity (EC50).

T1 sequence (P23458 850-1154): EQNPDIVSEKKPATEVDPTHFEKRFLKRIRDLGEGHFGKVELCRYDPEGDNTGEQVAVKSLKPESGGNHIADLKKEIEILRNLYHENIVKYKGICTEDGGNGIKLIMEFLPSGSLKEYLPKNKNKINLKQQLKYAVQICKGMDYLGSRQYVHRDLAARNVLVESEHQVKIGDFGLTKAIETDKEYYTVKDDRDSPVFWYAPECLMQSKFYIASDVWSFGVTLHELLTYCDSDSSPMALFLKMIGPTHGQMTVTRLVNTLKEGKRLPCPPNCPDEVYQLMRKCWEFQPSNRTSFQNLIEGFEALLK
T4 sequence (P52333 822-1111 limits assumed): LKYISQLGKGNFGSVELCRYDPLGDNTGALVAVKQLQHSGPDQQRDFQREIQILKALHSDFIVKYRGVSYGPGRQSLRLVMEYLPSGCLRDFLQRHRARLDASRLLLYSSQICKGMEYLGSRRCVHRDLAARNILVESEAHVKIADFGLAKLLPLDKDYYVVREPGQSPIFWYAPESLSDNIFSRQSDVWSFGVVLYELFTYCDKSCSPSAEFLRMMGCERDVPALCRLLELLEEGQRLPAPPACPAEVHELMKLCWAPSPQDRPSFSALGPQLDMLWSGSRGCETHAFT
T2 sequence (O60674 849-1124 limits assumed): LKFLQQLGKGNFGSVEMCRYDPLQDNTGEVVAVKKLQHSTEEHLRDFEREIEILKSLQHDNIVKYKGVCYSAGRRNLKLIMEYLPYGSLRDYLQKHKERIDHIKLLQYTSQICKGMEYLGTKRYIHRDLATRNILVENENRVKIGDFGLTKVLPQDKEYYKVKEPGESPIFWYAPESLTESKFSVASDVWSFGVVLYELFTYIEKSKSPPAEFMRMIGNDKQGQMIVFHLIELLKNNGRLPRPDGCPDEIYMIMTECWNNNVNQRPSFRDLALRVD

With `CN(C[C@H]1CCCN1C(=O)CC#N)S(=O)(=O)N1CCN(c2ncnc3[nH]ccc23)CC12CC2` [Example 189, N-[[(2R)-1-(2-cyanoacetyl)pyrrolidin-2-yl]methyl]-N-methyl-5-(7H-pyrrolo[2,3-d]pyrimidin-4-yl)-5,8-diazaspiro[2.5]octane-8-sulfonamide], the EC50 in test [1] was below 100 nM; in test [2], below 100 nM; in test [3], 100 to 500 nM; in test [4] it was below 100 nM.
For the compound `CN(C[C@H]1CCCN1C(=O)CCO)S(=O)(=O)N1CCN(c2ncnc3[nH]ccc23)CC12CC2` [Example 190, N-[[(2R)-1-(3-hydroxypropanoyl)pyrrolidin-2-yl]methyl]-N-methyl-5-(7H-pyrrolo[2,3-d]pyrimidin-4-yl)-5,8-diazaspiro[2.5]octane-8-sulfonamide], the EC50 is below 100 nM in test [1], below 100 nM in test [2], 100 to 500 nM in test [3] and 100 to 500 nM in test [4].
On to `CN(C[C@@H]1CCCN1C=O)S(=O)(=O)N1CCN(c2ncnc3[nH]ccc23)CC12CC2` [Example 191, N-[[(2S)-1-formylpyrrolidin-2-yl]methyl]-N-methyl-5-(7H-pyrrolo[2,3-d]pyrimidin-4-yl)-5,8-diazaspiro[2.5]octane-8-sulfonamide], for which the EC50 in test [1] was below 100 nM; in test [2], below 100 nM; in test [3], 100 to 500 nM; in test [4], below 100 nM.
For `CN(C[C@@H]1CCCN1C(=O)CO)S(=O)(=O)N1CCN(c2ncnc3[nH]ccc23)CC12CC2` [Example 192, N-[[(2S)-1-(2-hydroxyacetyl)pyrrolidin-2-yl]methyl]-N-methyl-5-(7H-pyrrolo[2,3-d]pyrimidin-4-yl)-5,8-diazaspiro[2.5]octane-8-sulfonamide], the EC50 in test [1], in test [2], in test [3] and in test [4] was below 100 nM throughout.
For the compound `CN(C[C@@H]1CCCN1C(=O)CCO)S(=O)(=O)N1CCN(c2ncnc3[nH]ccc23)CC12CC2` [Example 193, N-[[(2S)-1-(3-hydroxypropanoyl)pyrrolidin-2-yl]methyl]-N-methyl-5-(7H-pyrrolo[2,3-d]pyrimidin-4-yl)-5,8-diazaspiro[2.5]octane-8-sulfonamide], the EC50 in test [1] was below 100 nM; in test [2], below 100 nM; in test [3], 100 to 500 nM; in test [4] it was below 100 nM.
For the compound `CN(C[C@@H]1CCCN1S(C)(=O)=O)S(=O)(=O)N1CCN(c2ncnc3[nH]ccc23)CC12CC2` [Example 194, N-methyl-N-[[(2S)-1-methylsulfonylpyrrolidin-2-yl]methyl]-5-(7H-pyrrolo[2,3-d]pyrimidin-4-yl)-5,8-diazaspiro[2.5]octane-8-sulfonamide], the EC50 in test [1] was below 100 nM; in test [2], below 100 nM; in test [3], 100 to 500 nM; in test [4], below 100 nM.
With `COc1ccc(CNS(=O)(=O)N2CCN(c3ncnc4[nH]ccc34)CC23CC3)cc1` [Example 195, N-[(4-methoxyphenyl)methyl]-5-(7H-pyrrolo[2,3-d]pyrimidin-4-yl)-5,8-diazaspiro[2.5]octane-8-sulfonamide], the EC50 in test [1] is 100 to 500 nM; in test [2] it was 100 to 500 nM; in test [3], above 500 nM; in test [4], above 500 nM.
Take `CC(C)(C)OC(=O)N(CCCS(C)(=O)=O)S(=O)(=O)N1CCN(c2ncnc3[nH]ccc23)CC12CC2` [Example 196, tert-butyl N-(3-methylsulfonylpropyl)-N-[[5-(7H-pyrrolo[2,3-d]pyrimidin-4-yl)-5,8-diazaspiro[2.5]octan-8-yl]sulfonyl]carbamate]: the EC50 in test [1] is 100 to 500 nM; in test [2], 100 to 500 nM; in test [3] it was above 500 nM; in test [4] it was above 500 nM.
`NS(=O)(=O)N1CCN(c2ncnc3[nH]ccc23)CC12CC2` [Int 1]: the EC50 in test [1] was below 100 nM; in test [2], below 100 nM; in test [3] it was 100 to 500 nM; in test [4] it was below 100 nM.
For `CNS(=O)(=O)N1CCN(c2ncnc3[nH]ccc23)CC12CC2` [Int 3], the EC50 in test [1] is below 100 nM; in test [2], below 100 nM; in test [3], 100 to 500 nM; in test [4] it was below 100 nM.
Regarding `O=S(=O)(NCCc1ccccc1)N1CCN(c2ncnc3[nH]ccc23)CC12CC2` [Int 5], the EC50 is below 100 nM in test [1], below 100 nM in test [2], above 500 nM in test [3] and 100 to 500 nM in test [4].
On to `O=S(=O)(N1CCN(c2ncnc3[nH]ccc23)CC12CC2)n1ccnc1` [Int 15], for which the EC50 in test [1] is 100 to 500 nM; in test [2], below 100 nM; in test [3], above 500 nM; in test [4] it was above 500 nM.
Take `CN(CC1CCNC1)S(=O)(=O)N1CCN(c2ncnc3[nH]ccc23)CC12CC2` (stereo not drawn) [Int 25]: the EC50 in test [1] was below 100 nM; in test [2], below 100 nM; in test [3] it was above 500 nM; in test [4], 100 to 500 nM.
For `CN(CC1CCNCC1)S(=O)(=O)N1CCN(c2ncnc3[nH]ccc23)CC12CC2` [Int 26], the EC50 is below 100 nM in test [1], below 100 nM in test [2], above 500 nM in test [3] and 100 to 500 nM in test [4].
Turning to `CN(CC1CCCNC1)S(=O)(=O)N1CCN(c2ncnc3[nH]ccc23)CC12CC2` (stereo not drawn) [Int 27], the EC50 in test [1] is 100 to 500 nM; in test [2], 100 to 500 nM; in test [3] it was above 500 nM; in test [4] it was above 500 nM.
With `CN(CC1CC(F)(F)CN1)S(=O)(=O)N1CCN(c2ncnc3[nH]ccc23)CC12CC2` (stereo not drawn) [Int 28], the EC50 in test [1], in test [2], in test [3] and in test [4] was below 100 nM each time.
Turning to `O=S(=O)(NC1CCC1)N1CCN(c2ncnc3[nH]ccc23)CC12CC2` [Int 30], the EC50 in test [1] was below 100 nM; in test [2], below 100 nM; in test [3], above 500 nM; in test [4], 100 to 500 nM.
Consider `O=S1(=O)CCC(CNS(=O)(=O)N2CCN(c3ncnc4[nH]ccc34)CC23CC3)C1` (stereo not drawn) [Int 37], for which the EC50 in test [1] is below 100 nM; in test [2], below 100 nM; in test [3] it was above 500 nM; in test [4], below 100 nM.
Take `O=S1(=O)CCC(CNS(=O)(=O)N2CCN(c3ncnc4[nH]ccc34)CC23CC3)CC1` [Int 38]: the EC50 in test [1] was below 100 nM; in test [2] it was below 100 nM; in test [3], above 500 nM; in test [4] it was below 100 nM.
With `N#CCCNS(=O)(=O)N1CCN(c2ncnc3[nH]ccc23)CC12CC2` [Int 40], the EC50 in test [1] is below 100 nM; in test [2] it was below 100 nM; in test [3], above 500 nM; in test [4], below 100 nM.
In the case of `O=S(=O)(NC1COC1)N1CCN(c2ncnc3[nH]ccc23)CC12CC2` [Int 41], the EC50 is below 100 nM in test [1], below 100 nM in test [2], 100 to 500 nM in test [3] and below 100 nM in test [4].
For `O=S(=O)(NOCc1ccccc1)N1CCN(c2ncnc3[nH]ccc23)CC12CC2` [Int 46], the EC50 is below 100 nM in test [1], below 100 nM in test [2], 100 to 500 nM in test [3] and 100 to 500 nM in test [4].
In the case of `COc1ccc(/C=N\S(=O)(=O)N2CCN(c3ncnc4[nH]ccc34)CC23CC3)cc1` [Int 49], the EC50 in test [1] was below 100 nM; in test [2] it was below 100 nM; in test [3] it was 100 to 500 nM; in test [4], below 100 nM.
Turning to `CN(C1CNC1)S(=O)(=O)N1CCN(c2ncnc3[nH]ccc23)CC12CC2` [Int 50], the EC50 in test [1] was below 100 nM; in test [2], below 100 nM; in test [3], above 500 nM; in test [4] it was 100 to 500 nM.
As for `CN(C[C@H]1CCCN1)S(=O)(=O)N1CCN(c2ncnc3[nH]ccc23)CC12CC2` [Int 51], the EC50 in test [1] was 100 to 500 nM; in test [2], 100 to 500 nM; in test [3], above 500 nM; in test [4], above 500 nM.
`CN(C[C@@H]1CCCN1)S(=O)(=O)N1CCN(c2ncnc3[nH]ccc23)CC12CC2` [Int 52]: the EC50 was below 100 nM in test [1], below 100 nM in test [2], above 500 nM in test [3] and 100 to 500 nM in test [4].
Regarding `CC(C)(C)OC(=O)NS(=O)(=O)N1CCN(c2ncnc3[nH]ccc23)CC12CC2` [Int 53], the EC50 in test [1] was below 100 nM; in test [2] it was below 100 nM; in test [3], above 500 nM; in test [4] it was below 100 nM.
